Assay results published in US20090238808A1, “Process for the identification of novel enzyme interacting compounds” (priority 2005, published 2009).

Key:
protein kinase C alpha = target: T1, protein kinase C alpha (Homo sapiens, UniProt P17252); assay: In-lysate competition binding with kinobeads, Jurkat lysate, iTRAQ MS; conditions: for Relative Intensity, PKCa (PRKCA): DMSO control = 1.0
T1 construct: Aliqots of Jurkat lysate (10 mg protein) were incubated with different Bis VIII concentrations; endogenous in cells; host or cells: Jurkat clone E6-1 lysate
Protocol: This example illustrates competition binding in cell lysates (see particularly the third aspect of the invention). A test compound, Bisindolylmaleimide VIII (Bis VIII, a well known kinase inhibitor; Davies et al., 2000. Specificity and mechanism of action of some commonly used protein kinase inhibitors. Biochemical Journal 351 (Pt 1): 95-105) was added to a cell lysate thereby allowing the test compound to bind to the target proteins in the lysate. Then the lysate was contacted with the kinobeads affinity matrix to capture remaining free target proteins. The proteins bound to the kinobeads matrix were then eluted with detergent-containing buffer, separated on a SDS-polyacryamide gel and analyzed by immunodetection (Western blots) or mass spectrometry detection.
For the quantitative detection of proteins by mass spectrometry proteins were eluted from the affinity matrix and subsequently separated by SDS-Polyacrylamide gel elecrophoresis. Suitable gel areas were cut out and subjected to in-gel proteolytic digestion with trypsin.
Four tryptic digest samples (corresponding to three different Bis VIII concentrations in the lysate and one DMSO control) were labeled with ITRAQ reagents and the combined samples were analyzed in a single LC-MS/MS mass spectrometry analysis followed by peak quantification in the MS/MS spectrum (Ross et al., 2004. Multiplexed protein quantitation in Saccharomyces cerevisiae using amine-reactive isobaric tagging reagents. Mol. Cell. Proteomics 3(12): 1154-1169). […] Binding curves for individual kinases are shown (FIG. 5). The relative intensity 50 (RI50) values representing the affinity of kinase-compound pairs are similar to IC50 values reported by kinase enzyme assays (Davies et al., 2000. Specificity and mechanism of action of some commonly used protein kinase inhibitors. Biochemical Journal 351 (Pt 1): 95-105).
Aliqots of Jurkat lysate (10 mg protein) were incubated with different Bis VIII concentrations for one hour at 4° C. (0.025 μM, 0.074 μM, 0.22 μM, 0.67 μM, 2.0 μM and 6.0 μM final concentration of Bis VIII). To this end Bis VIII solutions were prepared in 100% DMSO as solvent that corresponded to 200 fold desired final Bis VIII concentration (Bis VIII from Alexis Biochemicals cat. number ALX 270-056). Five μl of these solutions were added to 1 ml of lysate resulting in the indicated final concentrations. For a control experiment 5 μl of DMSO without Bis VIII were used.
To each preincubated lysate sample 40 μl of kinobeads (see example 1) were added and incubated for one hour at 4° C. During the incubation the tubes were rotated on an end-over-end shaker (Roto Shake Genie, Scientific Industries Inc.). Beads were collected by centrifugation, transfered to Mobicol-columns (MoBiTech 10055) and washed with 10 ml 1×DP buffer containing 0.4% NP40 detergent, followed by a wash with 5 ml 1×DP buffer with 0.2% NP40. To elute the bound proteins, 100 μl 2×SDS sample buffer was added, the column was heated for 30 minutes at 50° C. and the eluate was transferred to a microfuge tube by centrifugation. Proteins were then separated by SDS-Polyacrylamide electrophoresis (SDS-PAGE). The composition and preparation of buffers is described in example 2.
The peptide extracts of samples treated with different concentrations of the test compound (0.074 μM, 0.22 μM and 0.67 μM Bis VIII) and the solvent control (0.5% DMSO) were treated with different isomers of the isobaric tagging reagent (iTRAQ Reagents Multiplex Kit, part number 4352135, Applied Biosystems, Foster City, Calif., USA). The iTRAQ reagents are a set of multiplexed, amine-specific, stable isotope reagents that can label all peptides in up to four different biological samples enabling simultaneous identification and quantitation of peptides. The iTRAQ reagents were used according to instructions provided by the manufacturer. […]

CDKL5 = CDKL5 (Mus musculus, UniProt Q3UTQ8); assay: Kinobeads elution with test compound, mouse brain lysate, MS; format: binding; conditions: kinase released from kinobeads by specific elution
From the text: This example illustrates competitive elution of proteins bound to kinobeads with non-modified test compounds (see particularly the fourth aspect of the invention). […] The kinobeads were contacted with mouse brain lysate under conditions that allow the binding of the proteins in the lysate to the ligands. The binding conditions were close to physiological by choosing suitable buffer conditions preserving the function of the proteins. After removing non-captured proteins through a gentle washing procedure the bound proteins were contacted with a test compound for protein elution. […] 1. […] Transfer 20 μl the 1:3 slurry into MoBiTech columns (equivalent to 5 μl of beads). 3. Place the column into an Eppendorf tube and centrifuge it for 15 seconds at 800 rpm at 4° C. Close columns with lower lid. 4. Add 10 μl elution buffer containing 1.0 mM of the test compound (concentration ranges of 0.1 to 1.0 mM are suitable). […] Close column with upper lid. 5. Incubate for 30 minutes at 4° C. in an Eppendorf incubator at 700 rpm. 6. Open column (first top, then bottom), put column back into siliconized tube ([…] Microcentrifuge Tubes, cat. no 11270, Sorenson BioScience, Inc.). To harvest the eluate centrifuge 2 minutes at 2.000 rpm in table top centrifuge at room temperature. The typical volume of the eluate is approximately 15 μl. 7. […]

Chain of CDKL5 (Q3UTQ8 whole entry): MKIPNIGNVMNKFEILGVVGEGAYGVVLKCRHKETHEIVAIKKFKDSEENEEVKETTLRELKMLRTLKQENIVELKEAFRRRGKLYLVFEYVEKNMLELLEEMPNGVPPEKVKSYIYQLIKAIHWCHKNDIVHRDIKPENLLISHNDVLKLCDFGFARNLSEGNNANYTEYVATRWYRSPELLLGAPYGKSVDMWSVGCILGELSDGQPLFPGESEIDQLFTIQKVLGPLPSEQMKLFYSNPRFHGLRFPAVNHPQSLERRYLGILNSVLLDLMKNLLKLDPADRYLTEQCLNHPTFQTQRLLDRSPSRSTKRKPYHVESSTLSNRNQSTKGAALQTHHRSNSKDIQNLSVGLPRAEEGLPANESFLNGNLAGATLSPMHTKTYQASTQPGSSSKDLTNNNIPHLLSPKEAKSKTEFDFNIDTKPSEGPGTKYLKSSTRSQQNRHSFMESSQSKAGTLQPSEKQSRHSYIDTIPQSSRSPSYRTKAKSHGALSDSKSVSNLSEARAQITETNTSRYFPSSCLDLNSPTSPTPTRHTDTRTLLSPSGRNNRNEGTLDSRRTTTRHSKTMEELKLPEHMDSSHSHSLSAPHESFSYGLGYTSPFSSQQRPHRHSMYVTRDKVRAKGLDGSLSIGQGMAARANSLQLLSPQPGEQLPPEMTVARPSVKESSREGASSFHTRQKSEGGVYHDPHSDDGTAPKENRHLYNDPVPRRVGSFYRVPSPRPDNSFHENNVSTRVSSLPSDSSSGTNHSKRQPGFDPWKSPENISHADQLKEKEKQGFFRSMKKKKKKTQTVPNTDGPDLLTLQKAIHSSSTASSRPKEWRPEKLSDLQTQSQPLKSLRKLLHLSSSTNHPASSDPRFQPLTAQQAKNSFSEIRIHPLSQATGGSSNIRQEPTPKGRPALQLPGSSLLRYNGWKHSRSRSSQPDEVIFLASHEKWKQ

Row | Compound | Relative Intensity, PKCa (PRKCA) (protein kinase C alpha; 0.074 uM in lysate) | Relative Intensity, PKCa (PRKCA) (protein kinase C alpha; 0.67 uM in lysate) | IC50 (protein kinase C alpha; Jurkat cell lysate, concentration at which relative intensity of the MS signal is 50% of DMSO control, read-out: RI50 (PKCa)) [nM] | mass spectrometry score, CDKL5 (CDKL5) | number of identified peptides, CDKL5 (CDKL5)
1 | Cn1cc(C2=C(c3cn(CCCN)c4ccccc34)C(=O)NC2=O)c2ccccc21 [Bis VIII, Bisindolylmaleimide VIII] | 0.25 | 0.18 | 12.2 |  | 
2 | CC(C)[C@H](CO)Nc1nc(Nc2ccc(C(=O)O)c(Cl)c2)c2ncn(C(C)C)c2n1 [Purvalanol B, reference compound] |  |  |  | 48 | 1
